This is an account of results in the supplement of paper PMC10307832.

What all share (experiment): relative viability (nuclei count vs DMSO), 5 days (fraction); higher = more cells survive
Compound in assay [1]: CO[C@@H]1[C@H](N(C)C(=O)c2ccccc2)C[C@H]2O[C@]1(C)n1c3ccccc3c3c4c(c5c6ccccc6n2c5c31)C(=O)NC4 [Midostaurin] + C[C@@H](Oc1cc(-c2cnn(C3CCNCC3)c2)cnc1N)c1c(Cl)ccc(F)c1Cl [Crizotinib] (partner 1 µM)
In short, it runs like this: (§1)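 For relative viability, nuclei counts in treated wells were divided by those in vehicle wells. Lung cancer cell lines had been pin-tool dosed in 1536-well plates the day after seeding and cultured for 5 days, then fixed and stained in one step (final 0.05% Triton X-100, 1% formaldehyde, 1 ug/ml Hoechst) and imaged at 4×. Doses were one drug alone or a fixed anchor-drug dose plus five library-drug doses (not always all listed) in √10 steps, and values are duplicate-plate medians.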

Compound in assay [2]: CO[C@@H]1[C@H](N(C)C(=O)c2ccccc2)C[C@H]2O[C@]1(C)n1c3ccccc3c3c4c(c5c6ccccc6n2c5c31)C(=O)NC4 [Midostaurin] + C[C@]1(O)C[C@@H](c2nc(-c3ccc4ccc(-c5ccccc5)nc4c3)c3c(N)nccn32)C1 [Linsitinib] (partner 1 µM)
In short, it runs like this:
as §1

Compound in assay [3]: CO[C@@H]1[C@H](N(C)C(=O)c2ccccc2)C[C@H]2O[C@]1(C)n1c3ccccc3c3c4c(c5c6ccccc6n2c5c31)C(=O)NC4 [Midostaurin] + CS(=O)(=O)N1CCN(Cc2cc3nc(-c4cccc5[nH]ncc45)nc(N4CCOCC4)c3s2)CC1 [Pictilisib] (partner 1 µM)
In short, it runs like this: as §1

Compound in assay [4]: CO[C@@H]1[C@H](N(C)C(=O)c2ccccc2)C[C@H]2O[C@]1(C)n1c3ccccc3c3c4c(c5c6ccccc6n2c5c31)C(=O)NC4 [Midostaurin] + Cc1cc(Nc2cc(N3CCN(C)CC3)nc(Sc3ccc(NC(=O)C4CC4)cc3)n2)n[nH]1 [Tozasertib] (partner 0.1 µM)
In short, it runs like this:
as §1

Compound in assay [5]: CO[C@@H]1[C@H](N(C)C(=O)c2ccccc2)C[C@H]2O[C@]1(C)n1c3ccccc3c3c4c(c5c6ccccc6n2c5c31)C(=O)NC4 [Midostaurin] + COc1cccc2cc(-c3nc([C@H]4CC[C@H](C(=O)O)CC4)n4ncnc(N)c34)[nH]c12 [OSI-027] (partner 0.5 µM)
In short, it runs like this: as §1

Turning to NCI-H661, the relative viability amounted to 0.931 in assay [1] (first compound 0.01 µM); 0.928 in assay [1] (first compound 0.03162 µM); 0.918 in assay [1] (first compound 0.1 µM); 0.982 in assay [1] (first compound 0.3162 µM); 0.56 in assay [2] (first compound 0.01 µM); 0.638 in assay [2] (first compound 0.03162 µM). The relative viability in assay [2] (first compound 0.1 µM) was found to be 0.532; in assay [2] (first compound 0.3162 µM), 0.439; in assay [3] (first compound 0.01 µM), 0.397; in assay [3] (first compound 0.03162 µM), 0.386; in assay [3] (first compound 0.1 µM), 0.33; in assay [3] (first compound 0.3162 µM) it was 0.438. Further, the relative viability in assay [4] (first compound 0.01 µM) amounted to 0.362; in assay [4] (first compound 0.03162 µM), 0.323; in assay [4] (first compound 0.1 µM), 0.364; in assay [4] (first compound 0.3162 µM), 0.376; in assay [5] (first compound 0.01 µM), 0.74; in assay [5] (first compound 0.03162 µM) it was 0.638. Besides, the values for the relative viability in assay [5] (first compound 0.1 µM) and in assay [5] (first compound 0.3162 µM) were 0.719 and 0.607, respectively.

For the cell line NCI-H727, the relative viability in assay [1] (first compound 0.01 µM) was found to be 0.861; in assay [1] (first compound 0.03162 µM) it was 0.524; in assay [1] (first compound 0.1 µM), 0.729; in assay [1] (first compound 0.3162 µM), 0.459; in assay [2] (first compound 0.01 µM) it was 0.329; in assay [2] (first compound 0.03162 µM), 0.337. Also, the relative viability in assay [2] (first compound 0.1 µM) came to 0.349; in assay [2] (first compound 0.3162 µM), 0.227; in assay [3] (first compound 0.01 µM) it was 0.491; in assay [3] (first compound 0.03162 µM) it was 0.301; in assay [3] (first compound 0.1 µM), 0.378; in assay [3] (first compound 0.3162 µM), 0.329. The relative viability worked out at 0.704 in assay [4] (first compound 0.01 µM); 0.704 in assay [4] (first compound 0.03162 µM); 0.575 in assay [4] (first compound 0.1 µM); 0.468 in assay [4] (first compound 0.3162 µM); 0.673 in assay [5] (first compound 0.01 µM); 0.492 in assay [5] (first compound 0.03162 µM). For the same cell line, the relative viability in assay [5] (first compound 0.1 µM) is 0.538; in assay [5] (first compound 0.3162 µM), 0.479.

In the case of NCI-H838, the relative viability in assay [1] (first compound 0.01 µM) came out at 0.877; in assay [1] (first compound 0.03162 µM), 0.634; in assay [1] (first compound 0.1 µM) it was 0.812; in assay [1] (first compound 0.3162 µM), 0.524; in assay [2] (first compound 0.01 µM), 1.01; in assay [2] (first compound 0.03162 µM), 0.828. The relative viability in assay [2] (first compound 0.1 µM) was 0.739; in assay [2] (first compound 0.3162 µM), 0.367; in assay [3] (first compound 0.01 µM), 0.565; in assay [3] (first compound 0.03162 µM), 0.48; in assay [3] (first compound 0.1 µM), 0.302; in assay [3] (first compound 0.3162 µM) it was 0.276. Besides, the relative viability in assay [4] (first compound 0.01 µM) came out at 0.271; in assay [4] (first compound 0.03162 µM), 0.283; in assay [4] (first compound 0.1 µM), 0.262; in assay [4] (first compound 0.3162 µM), 0.286; in assay [5] (first compound 0.01 µM), 0.481; in assay [5] (first compound 0.03162 µM) it was 0.394. The relative viability in assay [5] (first compound 0.1 µM) amounted to 0.382; in assay [5] (first compound 0.3162 µM), 0.349.

For NCI-H1355, the relative viability in assay [1] (first compound 0.01 µM) came to 0.965; in assay [1] (first compound 0.03162 µM), 1.01; in assay [1] (first compound 0.1 µM), 0.987; in assay [1] (first compound 0.3162 µM) it was 1; in assay [2] (first compound 0.01 µM) it was 0.755; in assay [2] (first compound 0.03162 µM), 0.83. Further, the relative viability in assay [2] (first compound 0.1 µM) is 0.865; in assay [2] (first compound 0.3162 µM), 0.838; in assay [3] (first compound 0.01 µM) it was 0.415; in assay [3] (first compound 0.03162 µM), 0.381; in assay [3] (first compound 0.1 µM), 0.401; in assay [3] (first compound 0.3162 µM) it was 0.526. The relative viability in assay [4] (first compound 0.01 µM) is 0.544; in assay [4] (first compound 0.03162 µM), 0.632; in assay [4] (first compound 0.1 µM), 0.597; in assay [4] (first compound 0.3162 µM), 0.475; in assay [5] (first compound 0.01 µM), 0.431; in assay [5] (first compound 0.03162 µM) it was 0.425. Besides, the relative viability in assay [5] (first compound 0.1 µM) turned out to be 0.39; in assay [5] (first compound 0.3162 µM), 0.492.

On to NCI-H1437, for which the relative viability is 0.935 in assay [1] (first compound 0.01 µM); 0.87 in assay [1] (first compound 0.03162 µM); 0.878 in assay [1] (first compound 0.1 µM); 1 in assay [1] (first compound 0.3162 µM); 1.2 in assay [2] (first compound 0.01 µM); 0.992 in assay [2] (first compound 0.03162 µM). The relative viability was determined as 1.12 in assay [2] (first compound 0.1 µM); 1.05 in assay [2] (first compound 0.3162 µM); 0.58 in assay [3] (first compound 0.01 µM); 0.567 in assay [3] (first compound 0.03162 µM); 0.567 in assay [3] (first compound 0.1 µM); 0.599 in assay [3] (first compound 0.3162 µM). Moreover, the relative viability stood at 0.453 in assay [4] (first compound 0.01 µM); 0.477 in assay [4] (first compound 0.03162 µM); 0.401 in assay [4] (first compound 0.1 µM); 0.403 in assay [4] (first compound 0.3162 µM); 0.816 in assay [5] (first compound 0.01 µM); 0.895 in assay [5] (first compound 0.03162 µM). Further, the relative viability in assay [5] (first compound 0.1 µM) was 0.853; in assay [5] (first compound 0.3162 µM), 0.933.

Turning to NCI-H1651, the relative viability was found to be 0.916 in assay [1] (first compound 0.01 µM); 0.85 in assay [1] (first compound 0.03162 µM); 0.918 in assay [1] (first compound 0.1 µM); 0.889 in assay [1] (first compound 0.3162 µM); 1.06 in assay [2] (first compound 0.01 µM); 0.851 in assay [2] (first compound 0.03162 µM). Moreover, the relative viability came out at 1.03 in assay [2] (first compound 0.1 µM); 0.957 in assay [2] (first compound 0.3162 µM); 0.543 in assay [3] (first compound 0.01 µM); 0.575 in assay [3] (first compound 0.03162 µM); 0.529 in assay [3] (first compound 0.1 µM); 0.512 in assay [3] (first compound 0.3162 µM). Moreover, the relative viability in assay [4] (first compound 0.01 µM) came out at 0.628; in assay [4] (first compound 0.03162 µM), 0.752; in assay [4] (first compound 0.1 µM) it was 0.543; in assay [4] (first compound 0.3162 µM), 0.685; in assay [5] (first compound 0.01 µM), 0.707; in assay [5] (first compound 0.03162 µM) it was 0.78. The relative viability in assay [5] (first compound 0.1 µM) amounted to 0.713; in assay [5] (first compound 0.3162 µM), 0.864.

As for NCI-H1666, the relative viability turned out to be 0.874 in assay [1] (first compound 0.01 µM); 1.12 in assay [1] (first compound 0.03162 µM); 0.858 in assay [1] (first compound 0.1 µM); 0.787 in assay [1] (first compound 0.3162 µM); 0.897 in assay [2] (first compound 0.01 µM); 0.916 in assay [2] (first compound 0.03162 µM). Besides, the relative viability in assay [2] (first compound 0.1 µM) is 0.77; in assay [2] (first compound 0.3162 µM) it was 0.822; in assay [3] (first compound 0.01 µM) it was 0.406; in assay [3] (first compound 0.03162 µM) it was 0.359; in assay [3] (first compound 0.1 µM), 0.523; in assay [3] (first compound 0.3162 µM), 0.516. Besides, the relative viability in assay [4] (first compound 0.01 µM) worked out at 0.629; in assay [4] (first compound 0.03162 µM) it was 0.572; in assay [4] (first compound 0.1 µM), 0.596; in assay [4] (first compound 0.3162 µM), 0.488; in assay [5] (first compound 0.01 µM) it was 0.8; in assay [5] (first compound 0.03162 µM), 0.794. Also, the relative viability in assay [5] (first compound 0.1 µM) turned out to be 0.883; in assay [5] (first compound 0.3162 µM), 0.903.
